Test system: SREBP pathway
Assay: SREBP luciferase reporter gene system (SRE-luciferase assay)
Type: cell-based, human
Details: Huh-7/SRE-luc cells, sterol-deficient medium, 0.01-10 µM
Procedure: Huh-7/SRE-luc cells were incubated in sterol-deficient medium (5% lipoprotein deficient serum, 2 µM lovastatin, 10 µM mevalonic acid) with corresponding concentrations of compounds for 16 hours. The Huh-7/SRE-luc cells were human hepatoma cell line Huh-7 stably expressing LDLR promotor-luciferase and green fluorescent protein (GFP). These cells were obtained by transfecting Huh-7 with pLDLR-promotor-luciferase and pEGFP-N1 plasmids, followed by screening under G418 antibiotic selection pressure. The Huh-7 cells were purchased from ATCC, the pLDLR-promotor-luciferase plasmid was obtained by molecular cloning methods, and the pEGFP-N1 plasmid was purchased from Addgene.
After compound treatment, the cells were lysed with lysis buffer (E397A, Promega). After the addition of luciferase substrate (E1500, Promega), the activity of SRE-driven luciferase was measured using a BioTek Synergy HTX microplate reader (including but not limited to this type of instrument). The fluorescence intensity of green fluorescent protein (EGFP) was also measured using the above BioTek microplate reader (including but not limited to this type of instrument) and served as an internal control. The ratio of SRE-driven luciferase activity divided by the fluorescence intensity of green fluorescent protein was used as an indicator of SREBP pathway activity. The test data for each test compound were analyzed using Prism software (with the DMSO-treated group as the reference to calculate the compound inhibition rate, fitted using the Prism log(inhibitor) vs. response--Variable slope (four-parameter) model, calculation formula: Y = Bottom + (Top - Bottom)/(1 + 10^((LogIC50 - X) × HillSlope))), to obtain the IC50 parameters of the compounds.
Using the method described in 1.1, the inhibitory effect of the compounds of the present disclosure on the SREBP pathway was tested. The concentration gradient for each compound was designed as 0.01, 0.03, 0.1, 0.3, 1.0, 3.0, and 10 µM, with the vehicle DMSO as the control.

Row | SMILES | IC50 (16 hours) [µM] | IC50 (Homo sapiens, Huh-7, 16 h) [µM]
1 | COc1cncc(F)c1C(O)CCC[C@@H](C)[C@H]1CC[C@H]2[C@H]3[C@H](CC[C@]12C)[C@@]1(C)CC[C@H](O)[C@H](O)[C@@H]1CC3(F)F (single isomer, unassigned) [Compound 252, (1R,3aS,3bS,5aR,6R,7S,9aR,9bS,11aR)-4,4-difluoro-1-[(2R,6R)-6-(3-fluoro-5-methoxypyridin-4-yl)-6-hydroxyhexan-2-yl]-9a,11a-dimethylhexadecahydro-1H-cyclopenta[1,2-a]phenanthrene-6,7-diol or (1R,3aS,3bS,5aR,6R,7S,9aR,9bS,11aR)-4,4-difluoro-1-[(2R,6S)-6-(3-fluoro-5-methoxypyridin-4-yl)-6-hydroxyhexan-2-yl]-9a,11a-dimethylhexadecahydro-1H-cyclopenta[1,2-a]phenanthrene-6,7-diol] | 0.031 | 
2 | C[C@H](CCCC(O)c1nnnn1C)[C@H]1CC[C@H]2[C@H]3[C@H](CC[C@]12C)[C@@]1(C)CC[C@H](O)[C@H](O)[C@@H]1CC3(F)F (stereo partly drawn) [Compound 384, (1R,3aS,3bS,5aR,6R,7 S,9aR,9bS,11aR)-4,4-Difluoro-1-[(2R)-6-hydroxy-6-(1-methyl-1,2,3,4-tetrazol-5-yl)hexan-2-yl]-9a,11a-dimethylhexadecahydro-1H-cyclopenta[1,2-a]phenanthrene-6,7-diol] |  | 0.185
3 | C[C@H](CCC[C@@H](O)c1nnnn1C)[C@H]1CC[C@H]2[C@H]3[C@H](CC[C@]12C)[C@@]1(C)CC[C@H](O)C[C@@H]1CC3(F)F (single isomer, unassigned) [Compound 381] |  | 0.285
4 | C[C@H](CCC[C@H](O)c1ncc(F)cc1F)[C@H]1CC[C@H]2[C@H]3[C@H](CC[C@]12C)[C@@]1(C)CC[C@H](O)[C@H](O)[C@@H]1CC3(F)F (single isomer, unassigned) [Compound 279] |  | 0.202
5 | C[C@H](CCCC(O)c1ccc(OC(F)(F)F)cc1F)[C@H]1CC[C@H]2[C@H]3[C@H](CC[C@]12C)[C@@]1(C)CC[C@H](O)[C@H](O)[C@@H]1CC3(F)F (stereo partly drawn) [Compound 62, (1R,3aS,3bS,5aR,6R,7S,9aR,9bS,11aR)-4,4-difluoro-1-[(2R)-6-{2-fluoro-4-[(trifluoromethyl)oxy]phenyl}-6-hydroxyhexan-2-yl]-9a,11a-dimethylhexadecahydro-1H-cyclopenta[1,2-a]phenanthrene-6,7-diol] |  | 0.728
6 | C[C@H](CCC[C@H](O)c1nc2ccccc2n1C)[C@H]1CC[C@H]2[C@H]3[C@H](CC[C@]12C)[C@@]1(C)CC[C@H](O)[C@H](O)[C@@H]1CC3(F)F [Compound 306, (1R,3aS,3bS,5aR,6R,7S,9aR,9bS,11aR)-4,4-difluoro-1-[(2R,6S)-6-hydroxy-6-(1-methylbenzo[d]imidazol-2-yl)hexan-2-yl]-9a,11a-dimethylhexadecahydro-1H-cyclopenta[1,2-a]phenanthrene-6,7-diol] |  | 0.121
7 | COc1cc(Cl)ccc1[C@H](O)CCC[C@@H](C)[C@H]1CC[C@H]2C3=C(F)C[C@H]4[C@@H](O)[C@@H](O)CC[C@]4(C)[C@H]3CC[C@]12C [Compound 110, (1R,3aR,5aR,6R,7S,9aR,9bR,11aR)-1-[(2R,6R)-6-(4-chloro-2-methoxyphenyl)-6-hydroxyhexan-2-yl]-4-fluoro-9a,11a-dimethyl-2,3,3a,5,5a,6,7,8,9,9a,9b,10,11,11a-tetradecahydro-1H-cyclopenta[1,2-a]phenanthrene-6,7-diol] |  | 1.13
8 | C[C@H](CCC[C@@H](O)c1cc2ccccc2o1)[C@H]1CC[C@H]2[C@H]3[C@H](CC[C@]12C)[C@@]1(C)CC[C@H](O)[C@H](O)[C@@H]1CC3(F)F (stereo in doubt) [Compound 317, (1R,3aS,3bS,5aR,6R,7S,9aR,9bS,11aR)-1-[(2R,6R)-6-(1-benzofuran-2-yl)-6-hydroxyhexan-2-yl]-4,4-difluoro-9a,11a-dimethylhexadecahydro-1H-cyclopenta[1,2-a]phenanthrene-6,7-diol] | 0.155 | 
9 | COc1cc(F)c(C(O)CCCC(C)C2CCC3C4C(CCC23C)C2(C)CCC(O)C(O)C2CC4(F)F)c(F)c1 (single isomer, unassigned) [Compound 204, (1R,3aS,3bS,5aR,6R,7S,9aR,9bS,11aR)-1-[(2R,6S)-6-(2,6-difluoro-4-methoxyphenyl)-6-hydroxyhexan-2-yl]-4,4-difluoro-9a,11a-dimethylhexadecahydro-1H-cyclopenta[1,2-a]phenanthrene-6,7-diol or (1R,3aS,3bS,5aR,6R,7S,9aR,9bS,11aR)-1-[(2R,6R)-6-(2,6-difluoro-4-methoxyphenyl)-6-hydroxyhexan-2-yl]-4,4-difluoro-9a,11a-dimethylhexadecahydro-1H-cyclopenta[1,2-a]phenanthrene-6,7-diol] |  | 0.145
10 | COc1c(F)cccc1C(O)CCC[C@@H](C)[C@H]1CC[C@H]2C3=C(F)C[C@H]4[C@@H](O)[C@@H](O)CC[C@]4(C)[C@H]3CC[C@]12C (stereo partly drawn) [Compound 48, (1R,3aR,5aR,6R,7S,9aR,9bR,11aR)-4-fluoro-1-[(2R)-6-(3-fluoro-2-methoxyphenyl)-6-hydroxyhexan-2-yl]-9a,11a-dimethyl-2,3,3a,5,5a,6,7,8,9,9a,9b,10,11,11a-tetradecahydro-1H-cyclopenta[1,2-a]phenanthrene-6,7-diol] |  | 0.203
11 | C[C@H](CCCC(O)c1c(F)ccnc1F)[C@H]1CC[C@H]2[C@H]3[C@H](CC[C@]12C)[C@@]1(C)CC[C@H](O)[C@H](O)[C@@H]1CC3(F)F (stereo partly drawn) [Compound 146, (1R,3aS,3bS,5aR,6R,7S,9aR,9bS,11aR)-1-[(2R)-6-(2,4-difluoropyridin-3-yl)-6-hydroxyhexan-2-yl]-4,4-difluoro-9a,11a-dimethylhexadecahydro-1H-cyclopenta[1,2-a]phenanthrene-6,7-diol] |  | 0.16
12 | C[C@H](CCCC(O)C1CC2CCC1C2)[C@H]1CC[C@H]2[C@H]3[C@H](CC[C@]12C)[C@@]1(C)CC[C@H](O)[C@H](O)[C@@H]1CC3(F)F (stereo partly drawn) [Compound 213, (1R,3aS,3bS,5aR,6R,7 S,9aR,9bS,11aR)-1-[(2R)-6-(Bicyclo[2.2.1]heptan-2-yl)-6-hydroxyhexan-2-yl]-4,4-difluoro-9a,11a-dimethylhexadecahyd ro-1H-cyclopenta[1,2-a]phenanthrene-6,7-diol] |  | 0.569
13 | COc1cc(C(O)CCC[C@@H](C)[C@H]2CC[C@H]3[C@H]4[C@H](CC[C@]23C)[C@@]2(C)CC[C@H](O)[C@H](O)[C@@H]2CC4(F)F)cc(F)n1 (single isomer, unassigned) [Compound 248, (1R,3aS,3bS,5aR,6R,7S,9aR,9bS,11aR)-4,4-difluoro-1-[(2R,6R)-6-(6-fluoro-2-methoxypyridin-4-yl)-6-hydroxyhexan-2-yl]-9a,11a-dimethylhexadecahydro-1H-cyclopenta[1,2-a]phenanthrene-6,7-diol or (1R,3aS,3bS,5aR,6R,7S,9aR,9bS,11aR)-4,4-difluoro-1-[(2R,6S)-6-(6-fluoro-2-methoxypyridin-4-yl)-6-hydroxyhexan-2-yl]-9a,11a-dimethylhexadecahydro-1H-cyclopenta[1,2-a]phenanthrene-6,7-diol] | 0.035 | 
14 | C[C@H](CCCC(O)c1cccc2nnn(C)c12)[C@H]1CC[C@H]2[C@H]3[C@H](CC[C@]12C)[C@@]1(C)CC[C@H](O)[C@H](O)[C@@H]1CC3(F)F (single isomer, unassigned) [Compound 278, (1R,3aS,3bS,5aR,6R,7S,9aR,9bS,11aR)-4,4-difluoro-1-[(2R,6R)-6-hydroxy-6-(3-methylbenzo[d][1,2,3]triazol-4-yl)hexan-2-yl]-9a,11a-dimethylhexadecahydro-1H-cyclopenta[1,2-a]phenanthrene-6,7-diol or (1R,3aS,3bS,5aR,6R,7S,9aR,9bS,11aR)-4,4-Difluoro-1-[(2R,6S)-6-hydroxy-6-(3-methylbenzo[d][1,2,3]triazol-4-yl)hexan-2-yl]-9a,11a-dimethylhexadecahydro-1H-cyclopenta[1,2-a]phenanthrene-6,7-diol] | 0.189 | 
15 | C[C@H](CCCC(O)c1ccc2c(c1)OC(F)(F)O2)[C@H]1CC[C@H]2[C@H]3[C@H](CC[C@]12C)[C@@]1(C)CC[C@H](O)[C@H](O)[C@@H]1CC3(F)F (single isomer, unassigned) [Compound 259, (1R,3aS,3bS,5aR,6R,7S,9aR,9bS,11aR)-1-[(2R,6R)-6-(2,2-difluorobenzo[d][1,3]dioxol-5-yl)-6-hydroxyhexan-2-yl]-4,4-difluoro-9a,11a-dimethylhexadecahydro-1H-cyclopenta[1,2-a]phenanthrene-6,7-diol or (1R,3aS,3bS,5aR,6R,7S,9aR,9bS,11aR)-1-[(2R,6S)-6-(2,2-difluorobenzo[d][1,3]dioxol-5-yl)-6-hydroxyhexan-2-yl]-4,4-difluoro-9a,11a-dimethylhexadecahydro-1H-cyclopenta[1,2-a]phenanthrene-6,7-diol] | 0.249 | 
